Here are results for 30 molecules from patent US11192877B2, “3-(5-hydroxy-1-oxoisoindolin-2-yl)piperidine-2,6-dione derivatives and uses thereof” (Novartis AG, priority 2018, dated 2021).

IKZF2 (Helios), sequence (Q9UKS7 whole entry): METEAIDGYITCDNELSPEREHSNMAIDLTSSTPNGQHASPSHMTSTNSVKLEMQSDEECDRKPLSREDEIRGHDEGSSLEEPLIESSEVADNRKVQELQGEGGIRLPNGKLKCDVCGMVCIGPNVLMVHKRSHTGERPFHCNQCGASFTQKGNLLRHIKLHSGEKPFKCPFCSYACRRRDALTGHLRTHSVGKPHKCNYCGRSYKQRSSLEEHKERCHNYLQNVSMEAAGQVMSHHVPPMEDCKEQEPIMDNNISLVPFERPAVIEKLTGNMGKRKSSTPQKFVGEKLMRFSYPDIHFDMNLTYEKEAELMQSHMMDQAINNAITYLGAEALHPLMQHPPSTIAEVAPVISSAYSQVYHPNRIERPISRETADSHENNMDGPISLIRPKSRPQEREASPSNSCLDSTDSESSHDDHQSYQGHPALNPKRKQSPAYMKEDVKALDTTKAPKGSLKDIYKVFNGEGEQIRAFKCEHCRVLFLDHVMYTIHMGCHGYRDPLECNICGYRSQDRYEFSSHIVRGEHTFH
IKZF2 (Helios), sequence (Q96SW2 whole entry): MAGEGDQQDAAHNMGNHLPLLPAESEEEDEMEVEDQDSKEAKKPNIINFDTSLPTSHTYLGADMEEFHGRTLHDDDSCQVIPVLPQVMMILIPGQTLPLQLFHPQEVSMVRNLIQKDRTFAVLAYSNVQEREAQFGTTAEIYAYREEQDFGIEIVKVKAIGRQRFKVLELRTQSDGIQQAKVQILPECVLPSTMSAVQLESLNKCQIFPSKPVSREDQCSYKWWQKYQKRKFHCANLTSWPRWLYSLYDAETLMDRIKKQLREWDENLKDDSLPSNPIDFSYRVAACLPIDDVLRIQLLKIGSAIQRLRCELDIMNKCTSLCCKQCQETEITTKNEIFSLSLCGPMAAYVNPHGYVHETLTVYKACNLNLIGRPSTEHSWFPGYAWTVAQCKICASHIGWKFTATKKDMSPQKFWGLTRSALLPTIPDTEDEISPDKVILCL
IKZF2 (Helios), sequence (Q16531 whole entry partner): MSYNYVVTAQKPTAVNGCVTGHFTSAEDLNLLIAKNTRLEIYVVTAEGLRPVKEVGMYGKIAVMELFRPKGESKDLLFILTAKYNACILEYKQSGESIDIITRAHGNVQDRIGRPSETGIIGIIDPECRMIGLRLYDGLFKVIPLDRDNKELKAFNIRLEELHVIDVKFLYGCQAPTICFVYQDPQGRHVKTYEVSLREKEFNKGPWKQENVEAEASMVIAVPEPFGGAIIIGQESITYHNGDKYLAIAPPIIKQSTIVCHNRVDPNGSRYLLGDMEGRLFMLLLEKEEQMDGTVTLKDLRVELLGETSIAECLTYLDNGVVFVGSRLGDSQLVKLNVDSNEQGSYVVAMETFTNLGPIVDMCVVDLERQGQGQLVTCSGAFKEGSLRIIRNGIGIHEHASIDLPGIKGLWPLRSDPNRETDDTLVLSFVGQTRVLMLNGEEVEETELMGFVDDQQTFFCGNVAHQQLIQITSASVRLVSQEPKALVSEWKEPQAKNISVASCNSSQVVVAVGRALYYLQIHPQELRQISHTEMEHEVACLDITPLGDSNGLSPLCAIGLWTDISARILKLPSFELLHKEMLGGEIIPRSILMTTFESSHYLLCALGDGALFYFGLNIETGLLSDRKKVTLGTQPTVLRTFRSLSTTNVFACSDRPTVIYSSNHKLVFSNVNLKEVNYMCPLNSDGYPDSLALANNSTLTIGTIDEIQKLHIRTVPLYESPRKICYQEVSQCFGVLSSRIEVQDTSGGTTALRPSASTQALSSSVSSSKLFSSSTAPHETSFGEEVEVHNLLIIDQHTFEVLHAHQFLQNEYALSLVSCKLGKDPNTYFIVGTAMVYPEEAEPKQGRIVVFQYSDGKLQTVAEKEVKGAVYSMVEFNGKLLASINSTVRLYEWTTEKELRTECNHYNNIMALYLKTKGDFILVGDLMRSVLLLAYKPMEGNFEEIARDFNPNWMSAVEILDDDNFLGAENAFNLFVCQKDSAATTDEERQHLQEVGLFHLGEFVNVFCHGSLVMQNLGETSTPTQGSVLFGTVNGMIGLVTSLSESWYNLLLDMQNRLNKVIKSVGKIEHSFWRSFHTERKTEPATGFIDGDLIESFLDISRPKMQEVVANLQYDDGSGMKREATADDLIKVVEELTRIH

One assay addresses IKZF2 (Helios) (Homo sapiens, UniProt Q96SW2+Q9UKS7). Briefly: Prolabel quantification of IKZF2 protein levels in 293GT cells. To be noted: 24 h, Pro-label assay, 293GT cells, 10 μM, read-out: IKZF2 % protein reduction at 10 μM, 24 h. Type of assay: cell-based.
For the molecule `CO[C@H]1CC[C@H](CN[C@H]2CCC[C@@H]2Oc2ccc3c(c2)CN(C2CCC(=O)NC2=O)C3=O)CC1` (stereo partly drawn) [I-159, 3-(5-(((1S,2S)-2-((((1r,4S)-4-methoxycyclohexyl)methyl)amino)cyclopentyl)oxy)-1-oxoisoindolin-2-yl)piperidine-2,6-dione], the IKZF2 % protein reduction at 10 µM stood at 75%. As for `COC1CCC(CN[C@H]2CCC[C@@H]2Oc2ccc3c(c2)CN(C2CCC(=O)NC2=O)C3=O)CC1` (stereo partly drawn) [I-161, 3-(5-(((1S,2S)-2-(((4-methoxycyclohexyl)methyl)amino)cyclopentyl)oxy)-1-oxoisoindolin-2-yl)piperidine-2,6-dione], the IKZF2 % protein reduction at 10 µM was found to be 80%. Regarding `CCN(CC1CC(C)(C#N)C1)[C@H]1CCC[C@@H]1Oc1ccc2c(c1)CN(C1CCC(=O)NC1=O)C2=O` (stereo partly drawn) [I-163, 3-((((1S,2S)-2-((2-(2,6-dioxopiperidin-3-yl)-1-oxoisoindolin-5-yl)oxy)cyclopentyl)(ethyl)amino)methyl)-1-methylcyclobutane-1-carbonitrile], the IKZF2 % protein reduction at 10 µM was determined as 78%.

With `O=C1CCC(N2Cc3cc(O[C@H]4CCC[C@@H]4N4CCCOCCC4)ccc3C2=O)C(=O)N1` (stereo partly drawn) [I-167, 3-(5-(((1S,2S)-2-(1,5-oxazocan-5-yl)cyclopentyl)oxy)-1-oxoisoindolin-2-yl)piperidine-2,6-dione], the IKZF2 % protein reduction at 10 µM is 75%. For `CO[C@H]1CC[C@H](CN(C)[C@H]2CCC[C@@H]2Oc2ccc3c(c2)CN(C2CCC(=O)NC2=O)C3=O)CC1` (stereo partly drawn) [I-171, 3-(5-(((1S,2S)-2-((((1R,4S)-4-methoxycyclohexyl)methyl)(methyl)amino)cyclopentyl)oxy)-1-oxoisoindolin-2-yl)piperidine-2,6-dione], the IKZF2 % protein reduction at 10 µM amounted to 74%. Still for that read-out and setting: the result for `O=C1CCC(N2Cc3cc(O[C@H]4CCC[C@@H]4NCC4CCC(F)(F)CC4)ccc3C2=O)C(=O)N1` (stereo partly drawn) [I-173, 3-(5-(((1S,2S)-2-(((4,4-difluorocyclohexyl)methyl)amino)cyclopentyl)oxy)-1-oxoisoindolin-2-yl)piperidine-2,6-dione] reads 84%; that for `O=C1CCC(N2Cc3cc(O[C@H]4CCC[C@@H]4NCc4ccc5[nH]ccc5c4)ccc3C2=O)C(=O)N1` (stereo partly drawn) [I-174, 3-(5-(((1S,2S)-2-(((1H-indol-5-yl)methyl)amino)cyclopentyl)oxy)-1-oxoisoindolin-2-yl)piperidine-2,6-dione], 86%. For the molecule `O=C1CCC(N2Cc3cc(O[C@H]4CCC[C@@H]4N4CC(Oc5ccccc5Cl)C4)ccc3C2=O)C(=O)N1` (stereo partly drawn) [I-177, 3-(5-(((1S,2S)-2-(3-(2-chlorophenoxy)azetidin-1-yl)cyclopentyl)oxy)-1-oxoisoindolin-2-yl)piperidine-2,6-dione], the IKZF2 % protein reduction at 10 µM came out at 92%. Same read-out and setting: with `COc1ccccc1OC1CN([C@H]2CCC[C@@H]2Oc2ccc3c(c2)CN(C2CCC(=O)NC2=O)C3=O)C1` (stereo partly drawn) [I-178, 3-(5-(((1S,2S)-2-(3-(2-methoxyphenoxy)azetidin-1-yl)cyclopentyl)oxy)-1-oxoisoindolin-2-yl)piperidine-2,6-dione] the figure was 92%; with `CCN(C[C@H]1C[C@@H](OC)C1)[C@H]1CCC[C@@H]1Oc1ccc2c(c1)CN(C1CCC(=O)NC1=O)C2=O` (stereo partly drawn) [I-180, 3-(5-(((1S,2S)-2-(ethyl(((1s,3R)-3-methoxycyclobutyl)methyl)amino)cyclopentyl)oxy)-1-oxoisoindolin-2-yl)piperidine-2,6-dione], 81%; with `O=C1CCC(N2Cc3cc(O[C@H]4CCC[C@@H]4N4CCc5ncccc5C4)ccc3C2=O)C(=O)N1` (stereo partly drawn) [I-190, 3-(5-(((1S,2S)-2-(7,8-dihydro-1,6-naphthyridin-6(5H)-yl)cyclopentyl)oxy)-1-oxoisoindolin-2-yl)piperidine-2,6-dione], 39%. Regarding `CO[C@H]1CC[C@@H](CN[C@H]2CCC[C@@H]2Oc2ccc3c(c2)CN(C2CCC(=O)NC2=O)C3=O)CC1` (stereo partly drawn) [I-191, 3-(5-(((1S,2S)-2-((((1s,4R)-4-methoxycyclohexyl)methyl)amino)cyclopentyl)oxy)-1-oxoisoindolin-2-yl)piperidine-2,6-dione], the IKZF2 % protein reduction at 10 µM was found to be 83%. In the case of `O=C1CCC(N2Cc3cc(O[C@H]4CCC[C@@H]4NCC4CC(F)(F)C4)ccc3C2=O)C(=O)N1` (stereo partly drawn) [I-194, 3-(5-(((1S,2S)-2-(((3,3-difluorocyclobutyl)methyl)amino)cyclopentyl)oxy)-1-oxoisoindolin-2-yl)piperidine-2,6-dione], the IKZF2 % protein reduction at 10 µM worked out at 83%. With `O=C1CCC(N2Cc3cc(O[C@H]4CCC[C@@H]4N4Cc5ccncc5C4)ccc3C2=O)C(=O)N1` (stereo partly drawn) [I-196, 3-(5-(((1S,2S)-2-(1,3-dihydro-2H-pyrrolo[3,4-c]pyridin-2-yl)cyclopentyl)oxy)-1-oxoisoindolin-2-yl)piperidine-2,6-dione], the IKZF2 % protein reduction at 10 µM turned out to be 68%. Still for that read-out and setting: with `CCN(C)[C@H]1c2ccccc2C[C@@H]1Oc1ccc2c(c1)CN(C1CCC(=O)NC1=O)C2=O` (stereo partly drawn) [I-200, 3-(5-(((1S,2S)-1-(ethyl(methyl)amino)-2,3-dihydro-1H-inden-2-yl)oxy)-1-oxoisoindolin-2-yl)piperidine-2,6-dione] the figure was 71%. `CN(C)[C@H]1c2ccccc2C[C@@H]1Oc1ccc2c(c1)CN(C1CCC(=O)NC1=O)C2=O` (stereo partly drawn) [I-201, 3-(5-(((1S,2S)-1-(dimethylamino)-2,3-dihydro-1H-inden-2-yl)oxy)-1-oxoisoindolin-2-yl)piperidine-2,6-dione]: the IKZF2 % protein reduction at 10 µM stood at 46%. Take `N[C@H]1CCC[C@@H]1Oc1ccc2c(c1F)CN(C1CCC(=O)NC1=O)C2=O` (stereo partly drawn) [I-213, 3-(5-(((1S,2S)-2-aminocyclopentyl)oxy)-4-fluoro-1-oxoisoindolin-2-yl)piperidine-2,6-dione]: the IKZF2 % protein reduction at 10 µM amounted to 20%. On the same count and under the same terms, the result for `CCN(CC)[C@H]1CCC[C@@H]1Oc1ccc2c(c1F)CN(C1CCC(=O)NC1=O)C2=O` (stereo partly drawn) [I-214, 3-(5-(((1S,2S)-2-(diethylamino)cyclopentyl)oxy)-4-fluoro-1-oxoisoindolin-2-yl)piperidine-2,6-dione] reads 40%. As to `N[C@H]1CCC[C@@H]1Oc1cc2c(cc1F)C(=O)N(C1CCC(=O)NC1=O)C2` (stereo partly drawn) [I-215, 3-(5-(((1S,2S)-2-aminocyclopentyl)oxy)-6-fluoro-1-oxoisoindolin-2-yl)piperidine-2,6-dione], the IKZF2 % protein reduction at 10 µM came out at 30%.

The assay is the same for the next values; noted with them: 24 h, read-out: IKZF2 % protein reduction at 10 μM, 24 h.
Take `N#C[C@H]1CC[C@H](CN[C@H]2CCC[C@@H]2Oc2ccc3c(c2)CN(C2CCC(=O)NC2=O)C3=O)CC1` (stereo partly drawn) [I-160, (1S,4r)-4-((((1S,2S)-2-((2-(2,6-dioxopiperidin-3-yl)-1-oxoisoindolin-5-yl)oxy)cyclopentyl)amino)methyl)cyclohexane-1-carbonitrile]: the IKZF2 % protein reduction at 10 µM turned out to be 75%. On to `O=C1CCC(N2Cc3cc(O[C@H]4CCC[C@@H]4N4CCC(F)CC4)ccc3C2=O)C(=O)N1` (stereo partly drawn) [I-166, 3-(5-(((1S,2S)-2-(4-fluoropiperidin-1-yl)cyclopentyl)oxy)-1-oxoisoindolin-2-yl)piperidine-2,6-dione], for which the IKZF2 % protein reduction at 10 µM was 81%.

`CCN(C[C@H]1CC[C@H](OC)CC1)[C@H]1CCC[C@@H]1Oc1ccc2c(c1)CN(C1CCC(=O)NC1=O)C2=O` (stereo partly drawn) [I-170, 3-(5-(((1S,2S)-2-(ethyl(((1r,4S)-4-methoxycyclohexyl)methyl)amino)cyclopentyl)oxy)-1-oxoisoindolin-2-yl)piperidine-2,6-dione]: the IKZF2 % protein reduction at 10 µM turned out to be 67%.

As for `O=C1CCC(N2Cc3cc(O[C@H]4CCC[C@@H]4N4CCC(OCC5CC5)CC4)ccc3C2=O)C(=O)N1` (stereo partly drawn) [I-186, 3-(5-(((1S,2S)-2-(4-(cyclopropylmethoxy)piperidin-1-yl)cyclopentyl)oxy)-1-oxoisoindolin-2-yl)piperidine-2,6-dione], the IKZF2 % protein reduction at 10 µM amounted to 86%. For `CC(C)OC1CCN([C@H]2CCC[C@@H]2Oc2ccc3c(c2)CN(C2CCC(=O)NC2=O)C3=O)CC1` (stereo partly drawn) [I-187, 3-(5-(((1S,2S)-2-(4-isopropoxypiperidin-1-yl)cyclopentyl)oxy)-1-oxoisoindolin-2-yl)piperidine-2,6-dione], the IKZF2 % protein reduction at 10 µM was determined as 79%. Regarding `O=C1CCC(N2Cc3cc(O[C@H]4CCC[C@@H]4N4C[C@@H]5[C@H](C4)[C@H]4CC[C@@H]5O4)ccc3C2=O)C(=O)N1` (stereo partly drawn) [I-188, 3-(5-(((1S,2S)-2-((3aR,4R,7S,7aS)-octahydro-2H-4,7-epoxyisoindol-2-yl)cyclopentyl)oxy)-1-oxoisoindolin-2-yl)piperidine-2,6-dione], the IKZF2 % protein reduction at 10 µM was found to be 70%. On to `CCOC1CCN([C@H]2CCC[C@@H]2Oc2ccc3c(c2)CN(C2CCC(=O)NC2=O)C3=O)CC1` (stereo partly drawn) [I-189, 3-(5-(((1S,2S)-2-(4-ethoxypiperidin-1-yl)cyclopentyl)oxy)-1-oxoisoindolin-2-yl)piperidine-2,6-dione], for which the IKZF2 % protein reduction at 10 µM stood at 70%. For the molecule `O=C1CCC(N2Cc3cc(O[C@H]4CCC[C@@H]4N4CCC(OC(F)F)CC4)ccc3C2=O)C(=O)N1` (stereo partly drawn) [I-195, 3-(5-(((1S,2S)-2-(4-(difluoromethoxy)piperidin-1-yl)cyclopentyl)oxy)-1-oxoisoindolin-2-yl)piperidine-2,6-dione], the IKZF2 % protein reduction at 10 µM is 85%. The same measure, in the same setting: the result for `N[C@H]1c2ccccc2C[C@@H]1Oc1ccc2c(c1)CN(C1CCC(=O)NC1=O)C2=O` (stereo partly drawn) [I-197, 3-(5-(((1S,2S)-1-amino-2,3-dihydro-1H-inden-2-yl)oxy)-1-oxoisoindolin-2-yl)piperidine-2,6-dione] reads 68%. Turning to `CCN[C@H]1c2ccccc2C[C@@H]1Oc1ccc2c(c1)CN(C1CCC(=O)NC1=O)C2=O` (stereo partly drawn) [I-198, 3-(5-(((1S,2S)-1-(ethylamino)-2,3-dihydro-1H-inden-2-yl)oxy)-1-oxoisoindolin-2-yl)piperidine-2,6-dione], the IKZF2 % protein reduction at 10 µM came out at 67%.

On to `CCN(CC)[C@H]1c2ccccc2C[C@@H]1Oc1ccc2c(c1)CN(C1CCC(=O)NC1=O)C2=O` (stereo partly drawn) [I-199, 3-(5-(((1S,2S)-1-(diethylamino)-2,3-dihydro-1H-inden-2-yl)oxy)-1-oxoisoindolin-2-yl)piperidine-2,6-dione], for which the IKZF2 % protein reduction at 10 µM is 71%.
